Measurements from patent US20230233671A1, “RNA MOLECULES” (Pfizer Inc., priority 2021, published 2023).

Legend:
Vero cells = assay: VZV gE expression and subcellular localization in Vero cells transfected with VZV RNA constructs (imaging); assay type: cell-based, African green monkeys; settings: Table 8; VZV gE RNA, see Example 2
Experimental: Expression of VZV RNA constructs were tested in transfected Vero cells, a kidney epithelial cell culture line derived from African green monkeys. Seeded Vero cells were transfected for 24 hours at 37° C., 5% CO2 with 10 ng, 25 ng, or 50 ng of RNA constructs (Table 5) using MESSENGERMAX™ in accordance with the manufacturer's instructions. Cells were washed three times with PBS+Ca/Mg, and fixed in 4% paraformaldehyde (PFA) for 20 minutes at 25° C. Cells were washed twice with 3% bovine serum albumin (BSA) in PBS+Ca/Mg. Primary and secondary staining antibodies were diluted in 0.1% saponin in goat serum. Cells were stained with a 1:1000 dilution of primary antibody for 1 hour at 37° C., washed three times with PBS+Ca/Mg, and incubated with secondary antibody (1:500) and CELLMASK™ (1:140,000) for 45 minutes at 37° C. Cells were then stained with Dapi (1:15,000-1:20,000) for 15 minutes at 25° C., and washed three times with PBS+Ca/Mg. Cells were analyzed for VZV gE expression and subcellular localization using an Opera PHENIX® Plus High-Content Screening System at 10× or 63× magnification.

[1] = system: human embryonic kidney (HEK) 293T cells; assay: In vitro expression (IVE) of VZV RNA-LNP vaccines in HEK 293T cells (FACS); assay type: cell-based; settings: for VZV RNA-LNPs (293T cells) MFI: Table 8; for VZV RNA-LNPs (293T cells) EC50 (ng/well): Table 8, FIG. 15, input RNA vs percentage of gE-expressing cells, 24 hours
Experimental: In vitro expression (IVE) analyses were conducted to assess the potency of VZV RNA-LNP vaccines. RNA constructs were formulated into LNPs as previously described in Example 3, and a range of input VZV RNA-LNP quantities was transfected into human embryonic kidney (HEK) 293T cells for 24 hours at 37° C., 5% CO2. Transfected cells were washed with DPBS, detached from plate wells using ACCUTASE®, and rinsed with cold PBS. Cells were subjected to live/dead staining, fixation, and permeabilization prior to FACS staining. Fixed and permeabilized cells were incubated with an anti-gE primary antibody (1:1000) for 45 minutes at 2-8° C., washed twice with BD PERM/WASH™ buffer and incubated with a goat anti-human kappa-PE secondary antibody (1:1000) for 30 minutes at 2-8° C. Cells were washed twice with BD PERM/WASH™ buffer, resuspended in 1×FACS buffer, and analyzed on a BD LSRII to determine the proportion of cells expressing VZV gE for each VZV RNA-LNP input. A titration curve was created whereby input RNA quantities were plotted against the percentage of gE-expressing cells to determine the EC50 of each VZV RNA-LNP vaccine.

VZV gE [2] = assay: IFN-γ ELISpot of gE peptide-stimulated splenocytes from LAV-experienced C57BL/6 mice; assay type: in vivo; settings: Day 48 (13 days post dose 1), 1 μg IM Day 35
Experimental: VZV RNA-LNP vaccines were tested for their ability to induce IgG and T cell responses in C57BL/6 mice. 15 mice per group were immunized in accordance with the schedule and specification in Table 11. Briefly, 10 or 15 mice per group were primed subcutaneously (SQ) on Day 0 with a live-attenuated varicella (LAV) vaccine (VARIVAX®, Merck) using a full human dose per mouse (1350 pfu), immunized intramuscularly (IM) on Day 35 day and boosted on Day 63. The “infection” with a LAV vaccine mimics exposure to VZV that humans receive when infected with VZV as children and develop chickenpox. […]
Vaccine-induced T cell response was measured following ex vivo stimulation of splenocytes with gE peptide pool (2 μg/mL of each peptide) by ELISpot and Intracellular Cytokine Staining (ICS) assay (described herein). […] T cell IFN-γ response was measured using Mabtech Mouse IFN-γ ELISpot PLUS kit (ALP) and expressed as spot forming cells (SFC) per million cells. The ICS assay measured IFN-γ-expressing cells within CD4^+ and CD8^+ T cells expressed as percentage of IFN-γ^+ cells within CD4^+ and CD8^+ T cells. […]

VZV gE [3] = assay: Frequency of gE-specific IgG+ B cells in splenocytes of LAV-experienced C57BL/6 mice (flow cytometry); assay type: in vivo; settings: percentage of IgG-expressing B cells
Experimental: VZV RNA-LNP vaccines were tested for their ability to induce IgG and T cell responses in C57BL/6 mice. 15 mice per group were immunized in accordance with the schedule and specification in Table 11. Briefly, 10 or 15 mice per group were primed subcutaneously (SQ) on Day 0 with a live-attenuated varicella (LAV) vaccine (VARIVAX®, Merck) using a full human dose per mouse (1350 pfu), immunized intramuscularly (IM) on Day 35 day and boosted on Day 63. The “infection” with a LAV vaccine mimics exposure to VZV that humans receive when infected with VZV as children and develop chickenpox.
Mice immunized with SHINGRIX® received 1, 2.5, or 5 μg, corresponding to 1/50, 1/20, and 1/10 of the human clinical dose, respectively; mice immunized with gE_WT CO2 received 0.5 or 1 μg VZV RNA-LNP; mice immunized with ms5 CO1 received 0.5 or 1 ug VZV RNA-LNP; mice immunized with ms6 CO2 received 0.5 or 1 ug VZV RNA-LNP; and mice immunized with lyophilized gE_WT CO2 received 0.5 or 1 ug VZV RNA-LNP. Saline was administered on Day 35 and 63 to a negative control group. Sera was collected from mice on Day 35, 63 and 76 for characterization of VZV gE-binding IgG levels (LUMINEX® analyses). Spleens were harvested on Day 48 (13 days post dose 1 for selected groups) and Day 76 for cellular analysis (T cell and B cell responses).
Vaccine-induced B cell response was evaluated by measuring the frequencies of VZV gE-specific B cells in the spleen. Wild type gE protein ectodomain with streptag was coupled to streptavidin (SA)-fluorochromes PE and APC, both from BioLegend in the ratio of 2:1 in separate tubes for 1 hour at room temperature (RT) at 20× of desired staining concentration (10 μg/mL for each protein). Each of the SA-fluorochrome-coupled spike proteins were pooled and diluted to 1× using flow cytometry (FC) buffer (2% FBS/PBS) to generate B-cell probes to identify gE-specific B cells. Single cell suspensions of splenocytes (5×10^6 cells per well) were first washed in PBS and stained with eFluor 506 Fixable Viability dye for 10 minutes at RT to identify live from dead cells. Following washes in FC buffer, cells were incubated with 50 μL/well of 1×B-cell probe for 30 to 45 minutes and then washed to remove unbound probes. Cells were surface stained with a cocktail of flow cytometry antibodies (CD19, IgD, IgM, IgD, All from BioLegend) to identify B cell surface phenotypes. Following washing, cells were fixed using BD Fixation buffer and suspended in FC buffer. Cells were acquired on LSR Fortessa and data analyzed by FlowJo (10.7.1). The results of gE-specific B cells were expressed as the percentage of IgG-expressing B cells.

[4] = Day 48 (13 days post dose 1), 1 μg IM Day 35
[5] = Day 76 (13 days post dose 2/boost), 1 μg IM Days 35 and 63

| Substance | VZV RNA (Vero cells) MFI (Vero cells) | VZV RNA-LNPs (293T cells) MFI [1] | VZV RNA-LNPs (293T cells) EC50 (ng/well) [1] [ng/well] | gE-specific IFN-γ+ cells (ELISpot) (VZV gE [2]) [SFC per million cells] | gE-specific IgG+ B cells (VZV gE [3]; [4]) [%] | gE-specific IgG+ B cells (VZV gE [3]; [5]) [%] |
| --- | --- | --- | --- | --- | --- | --- |
| ms5 CO1: modRNA construct, ORF SEQ ID NO: 153, VZV gE with deletion of aa 582-623 | 1368 | 543 | 14 | 1068 | 4.14 | 2.19 |
| ms6 CO2: modRNA construct, ORF SEQ ID NO: 157, VZV gE with deletion of aa 539-623, secreted | 458 | 162 | 220 | 150 | 1.85 | 1.38 |
